Test results: patent publication US10800816B2 (Baxalta GmbH, priority 2012, dated 2020)
Bridges are numbered along the chain shown (N, C = ends). [ ]: non-standard residue; d: D form. Aib = CC(C)(N)C(=O)O

Legend:
[1] = test system: cynomolgus TFPI 1-160; test: FXa inhibition assay with cynomolgus monkey TFPI 1-160; format: biochemical
[2] = biological target: T1, HUVEC TFPI (Homo sapiens, UniProt P10646); test: Cell-based extrinsic tenase assay (HUVEC); details: relative to 100 nM polyclonal anti-human TFPI antibody = 100%
T1 construct: endogenous in cells; host or cells: HUVEC stimulated with TNFα
T1 sequence (P10646 29-304): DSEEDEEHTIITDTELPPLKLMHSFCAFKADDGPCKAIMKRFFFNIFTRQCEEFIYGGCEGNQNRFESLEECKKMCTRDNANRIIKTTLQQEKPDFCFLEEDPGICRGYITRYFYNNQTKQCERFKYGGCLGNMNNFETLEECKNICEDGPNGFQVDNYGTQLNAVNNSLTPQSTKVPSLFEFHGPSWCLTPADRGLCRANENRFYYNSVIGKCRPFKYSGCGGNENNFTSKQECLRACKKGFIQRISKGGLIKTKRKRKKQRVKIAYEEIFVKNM

[3] = test system: FVIII-inhibited whole blood; test: Rotation thromboelastography (ROTEM) in whole blood; set-up: species or system human; details: concentrations above 100 nM; 2 nM and 10 nM full length TFPI added
[4] = biological target: T2, TFPI (Homo sapiens, UniProt P10646); test: koff assay; format: binding; details: 24 hour incubation
T2 sequence (P10646 29-304): T1 sequence (P10646 29-304)

[5] = biological target: T3, platelet TFPI (Homo sapiens, UniProt P10646); test: TF-FVIIa-catalysed FX activation inhibited by platelet TFPI; format: biochemical; details: 50 nM peptide
T3 construct: from tissue; donor PPP and PRP
T3 sequence (P10646 29-304): T1 sequence (P10646 29-304)

[6] = biological target: T4, plasma- and platelet TFPI (Homo sapiens, UniProt P10646); test: Thrombin generation in platelet-poor and platelet-rich plasma; format: biochemical
T4 construct: from tissue; donor PPP and PRP
T4 sequence (P10646 29-304): T1 sequence (P10646 29-304)

[7] = biological target: T5, fl-TFPI / LRP (Homo sapiens, UniProt P10646); test: BIAcore: fl-TFPI binding to LRP in presence of peptide; details: 1 μM peptide, 10 nM fl-TFPI
T5 sequence (P10646 29-304): T1 sequence (P10646 29-304)
T5 sequence (Q07954 852-1182 partner limits assumed): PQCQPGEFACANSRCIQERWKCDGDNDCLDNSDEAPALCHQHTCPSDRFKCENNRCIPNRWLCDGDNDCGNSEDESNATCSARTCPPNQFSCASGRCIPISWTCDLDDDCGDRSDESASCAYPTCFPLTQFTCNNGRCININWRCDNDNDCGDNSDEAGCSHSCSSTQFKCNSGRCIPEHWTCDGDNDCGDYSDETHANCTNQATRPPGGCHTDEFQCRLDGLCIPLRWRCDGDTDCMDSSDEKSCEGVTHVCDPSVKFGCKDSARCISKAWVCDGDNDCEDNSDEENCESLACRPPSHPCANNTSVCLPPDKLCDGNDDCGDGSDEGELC

[8] = biological target: T6, fl-TFPI / ASGPR (Homo sapiens, UniProt P10646); test: BIAcore: fl-TFPI binding to ASGPR in presence of peptide; details: 1 μM peptide
T6 sequence (P10646 29-304): T1 sequence (P10646 29-304)

[9] = test system: neutrophil elastase; test: Proteolytic degradation of fl-TFPI by neutrophil elastase; format: biochemical, human; details: 1 μM peptide, 5 nM fl-TFPI, 5 nM elastase, up to 60 minutes
[10] = biological target: T2, TFPI; test: FXa inhibition by TFPI in presence of Ca2+, phospholipid and protein S; format: biochemical; details: 50 nM peptide; PL+Ca2++protein S
Experimental: The effects of TFPI binding peptides on the anticoagulant activity of TFPI was tested in model systems (inhibition of FXa and TF-FVIIa-catalysed FX activation by TFPI) and in plasma (NP, PPP, PRP or TFPI-depleted plasma reconstituted with recombinant- or platelet-TFPI or platelets). […] […])/kobs in which At is absorbance at 405 nm at time t; A0 is initial absorbance at 405 nm; vs is final steady-state velocity; v0 is initial velocity; kobs is apparent rate constant for the transition from v0 to vs (FXa-TFPI to FXa-TFPI*). The values v0 and vs relative to rates of chromogenic substrate conversion by FXa in the absence of TFPI, represent the extent of loose and tight FXa-TFPI complex formation.

[11] = in vitro; details: human, plasma
[12] = test system: TFPI; test: FXa inhibition assay (human TFPI); details: all human TFPI concentrations tested (up to 10 nM)
[13] = test system: TFPI; test: Extrinsic tenase inhibition assay; details: Table 19; 0.0625 nM TFPI
[14] = biological target: T2, TFPI; test: Plasma-based thrombin generation assay (calibrated automated thrombography), human plasma; details: 50-100 nM peptide; 10 nM flTFPI, FVIII-inhibited plasma

reduction of EC50 compared to JBT1857 [1]: approximately 200 fold | reduction of EC50 compared to the combination of JBT1837 and JBT1857 [1]: ~10 fold | concentration achieving full inhibition of TFPI [2]: about 10 nM | enhancement of thrombin generation ([6]; PPP): 3-4 fold | concentration sufficient to fully inhibit TFPI ([6]; PPP and PRP): 5 to 10 nM | enhancement of thrombin generation ([6]; PRP with inhibitory FVIII antibody): 3 fold | fl-TFPI interaction with ASGPR in presence of peptide [8]: interacted with ASGPR | blocking of TFPI [10]: almost completely blocked TFPI | remaining at 24 h [11]: 54% | Extrinsic Tenase Assay Maximal inhibition (%) [13]: 99%
Substance: Ac-FQSK[dP]NVHVDGYFERL[Aib]AKLSSSSSSSSSSSYYKWHCAMRDMKGTMTCVWVKF-NH2 (disulfide 37-48 (inferred)) [JBT2547]
Cynomolgus Monkey TFPI 1-160 Maximal inhibition (%) ([1]; Table 20): 100% | restoration of coagulation with added full length TFPI [3]: fully restored normal coagulation of FVIII-inhibited whole blood | blocking of tracer JBT2271 binding after incubation [4]: continued to block binding of the tracer to TFPI | blocking of platelet TFPI inhibition of TF-FVIIa-catalysed FX activation [5]: completely blocked the anticoagulant activity of TFPI | fl-TFPI interaction with LRP in presence of peptide [7]: higher response than that observed for TFPI complexed with single peptides | effect on proteolysis of fl-TFPI by neutrophil elastase [9]: proteolysis of fl-TFPI was blocked during the monitored time | inhibition of TFPI activity [12]: 100% | compensation of added flTFPI [14]: fully compensated the anticoagulant effect of 10 nM flTFPI
